# In patent US8846704B2, “Thiopyrimidine-based compounds and uses thereof” (YM Biosciences Austraila Pty Ltd, priority 2007, dated 2014):
# What was measured:
# Type in all cases: cell-based
# CTLL2 = test: Cellular screening, CTLL2 cells, Alamar Blue; conditions: Mus musculus, CTLL-2, read-out: CTLL2 IC50_nM
# In short: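 CTLL2 cells in late log phase incubated with compound for 40 hr at 37° C, 5% CO2. Viability then read at 544 nm after a further 4-6 hours with Alamar Blue.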
# BaF3 wild-type cells = test: Cellular screening, BaF3 wild-type cells, Alamar Blue; conditions: Mus musculus, 40 hr, read-out: BAF3wt IC50_nM
# In short: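 Cells were cultured in DMEM with 10% FCS and 10% WEHI 3B conditioned medium, and suspensions were prepared at 1.1× final (50,000–200,000 cells/mL). Compounds from 20 μM dilution plates were added at 10× final and incubated for 40 hr at 37° C, 5% CO2. Alamar Blue was then added for 4–6 hours and read at 544 nm.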
# BaF3 TELJAK3 cells = target: T1, BaF3 TELJAK3 cells (Homo sapiens, UniProt P52333); test: Cellular screening, BaF3 TEL:JAK3 cells, Alamar Blue; conditions: 40 hr, read-out: BafT_J3 IC50_nM
# T1 construct: fused on or other part: TEL (ETV6) N-terminal part, coding nucleotides 1-487, serves as the oligomerising partner; It is fused through a Sal I site to the JAK3 kinase domain and expressed from pTRE2 in BaF3 cells bearing pTET-off; P41212 (Transcription factor ETV6)
# T1 sequence (P52333 1-1124): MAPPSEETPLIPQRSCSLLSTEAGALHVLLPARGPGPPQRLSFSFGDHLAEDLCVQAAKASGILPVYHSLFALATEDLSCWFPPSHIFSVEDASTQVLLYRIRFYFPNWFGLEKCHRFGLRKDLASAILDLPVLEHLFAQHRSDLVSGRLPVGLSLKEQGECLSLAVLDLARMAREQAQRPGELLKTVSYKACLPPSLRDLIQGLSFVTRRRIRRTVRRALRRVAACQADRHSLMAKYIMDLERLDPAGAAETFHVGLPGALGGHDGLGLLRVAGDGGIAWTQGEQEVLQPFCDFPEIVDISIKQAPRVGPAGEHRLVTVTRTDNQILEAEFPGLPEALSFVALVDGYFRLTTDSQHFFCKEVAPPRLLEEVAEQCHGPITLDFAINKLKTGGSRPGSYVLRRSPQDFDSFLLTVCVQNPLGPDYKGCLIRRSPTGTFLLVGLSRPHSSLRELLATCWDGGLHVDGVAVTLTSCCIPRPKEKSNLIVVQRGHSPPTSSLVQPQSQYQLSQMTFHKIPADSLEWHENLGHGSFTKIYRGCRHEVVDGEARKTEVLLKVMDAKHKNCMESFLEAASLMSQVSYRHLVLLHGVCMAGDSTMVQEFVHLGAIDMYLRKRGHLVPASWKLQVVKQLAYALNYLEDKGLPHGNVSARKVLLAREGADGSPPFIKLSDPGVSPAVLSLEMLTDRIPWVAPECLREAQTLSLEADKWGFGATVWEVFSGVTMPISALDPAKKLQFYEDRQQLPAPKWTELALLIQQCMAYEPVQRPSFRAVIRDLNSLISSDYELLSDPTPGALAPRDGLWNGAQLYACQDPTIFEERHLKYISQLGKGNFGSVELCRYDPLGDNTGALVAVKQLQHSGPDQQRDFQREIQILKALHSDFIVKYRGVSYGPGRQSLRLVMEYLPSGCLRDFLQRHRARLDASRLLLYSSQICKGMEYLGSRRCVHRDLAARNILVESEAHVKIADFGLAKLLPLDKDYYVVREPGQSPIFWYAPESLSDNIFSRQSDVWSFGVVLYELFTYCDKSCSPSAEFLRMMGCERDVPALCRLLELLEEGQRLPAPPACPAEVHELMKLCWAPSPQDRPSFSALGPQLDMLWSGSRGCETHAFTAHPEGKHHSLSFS
# Description: For screening purposes, compounds were diluted in 96 well plates at a concentration of 20 μM. Plates were warmed at 37° C. for 30 minutes before the assay was performed.
# The coding region encompassing nucleotides 1-487 of TEL was amplified by PCR using the oligonucleotides STEL (5′-GGAGGATCCTGATCTCTCTCGCTGTGAGAC-3′) [SEQ ID NO 14] and 3TEL (5′-AGGC GTCGACTTCTTCTTCATGGTTCTG-3′) [SEQ ID NO 15] and U937 mRNA as a template. A […] restriction site was incorporated into the STEL primer, and a Sal I restriction site was incorporated into the 3TEL primer. The regions encompassing the kinase domain of JAK2 (nucleotides 2994-3914; JAK2F 5′-ACGC GTCGACGGTGCCTTTGAAGACCGGGAT-3′ [SEQ ID NO 16]; JAK2R 5′-ATAGTTTAGCGGCCGCTCAGAATGAAGGTCATTT-3′) [SEQ ID NO 17] and JAK3 (nucleotides 2520-3469; JAK3F 5′-GAAGTCGACTATGCCTGCCAAGACCCCACGATCTT-3′) [SEQ ID NO 18] were generated by PCR using Taq DNA polymerase (Gibco/BRL) and […] as a template. A Sal I restriction site was incorporated into the forward primer of JAK2 and JAK3, a Not I site was incorporated into the JAK2 reverse primer and a Xba I site was added to the reverse primer of JAK3.
# The TEL/Jak3 fusion was prepared by ligation of the JAK3 Sal I/Not I cleaved kinase domain PCR product with the BamH I/Sal I restriction digested TEL product, followed by ligation of the ligation product into the BamH I/Not I digested pTRE2, to give the TEL/Jak3 fusion plasmid pTELJAK3.
# The growth factor dependant myelomonocytic cell line BaF3 bearing the pTET-off plasmid (Clontech) was transfected with either pTELJAK2 or pTELJAK3, and the transfected cells were selected for growth-factor independent cell growth. The BaF3 wild-type cells were cultured in DMEM containing 10% FCS, 10% WEHI 3B conditioned medium. The BaF3 TELJAK cells ([…]) were cultured in DMEM 10% Tet-System Approved FBS (without WEHI 3B conditioned medium).
# Cell suspensions were prepared by harvesting cells from culture (the cells used in this test were in late log phase growth with high viability.) Cells were diluted in the appropriate growth medium, as described above, to 1.1× final concentration (from 50,000 cell/mL to 200,000 cell/mL, depending on cell line).
# Compounds to be tested were added (10 μL, 10× final concentration) to a flat bottomed 96-well plate. The cellular suspension (90 μL per well) was then added, and the plate incubated for 40 hr at 37° C., 5% CO2. Alamar Blue 10 μL per well was added and the plates returned to the incubator for a further 4-6 hours. The plates were then read at 544 nm.
SMILES,IC50 (CTLL2),IC50 (BaF3 wild-type cells),GI50 (BaF3 TELJAK3 cells)
"C=CC(=O)Nc1ccc(Sc2nc(Nc3ccc(N4CCOCC4)cc3)ncc2Br)cc1 [Compound 306, N-(4-(5-bromo-2-(4-morpholinophenylao)pyrimidin-4-ylthio)phenyl)acrylamide]",< 1 µM,> 20 µM,< 1 µM
"Nc1ccc(Sc2nc(Nc3ccc(N4CCOCC4)cc3)ncc2F)cc1 [Compound 263, 4-(4-aophenylthio)-5-fluoro-N-(4-morpholinophenyl)pyrimidin-2-ae]",> 20 µM,< 5 µM,< 5 µM
"C=CC(=O)Nc1ccc(Sc2ccnc(Nc3cccc(N4CCOCC4)c3)n2)cc1 [Compound 77, N-(4-(2-(3-morpholinophenylao)pyrimidin-4-ylthio)phenyl)acrylamide]",< 1 µM,< 5 µM,< 1 µM
"Cc1cc(N)ccc1Sc1nc(Nc2ccc(N3CCOCC3)cc2)ncc1C [Compound 162, 4-(4-ao-2-methylphenylthio)-5-methyl-N-(4-morpholinophenyl)pyrimidin-2-ae]",< 5 µM,< 20 µM,< 5 µM
"C=CC(=O)Nc1ccc(Sc2nc(Nc3ccc(N4CCN(C)CC4)c(OC)c3)ncc2C)cc1 [Compound 249, N-(4-(2-(3-methoxy-4-(4-methylpiperazin-1-yl)phenylao)-5-methylpyrimidin-4-ylthio)phenyl)acrylamide]",< 1 µM,< 5 µM,< 1 µM
"C=CC(=O)Nc1ccc(Sc2nc(Nc3ccc(OC)c(NS(C)(=O)=O)c3)ncc2C)cc1 [Compound 293, N-(4-(2-(4-methoxy-3-(methylsulfonamido)phenylao)-5-methylpyrimidin-4-ylthio)phenyl)acrylamide]",< 1 µM,< 5 µM,< 1 µM
"CCOC(=O)/C=C/C(=O)Nc1ccc(Sc2nc(Nc3ccc(N4CCOCC4)cc3)ncc2C)cc1 [Compound 385, (E)-ethyl 4-(4-(5-methyl-2-(4-morpholinophenylao)pyrimidin-4-ylthio)phenylao)-4-oxobut-2-enoate]",< 5 µM,> 20 µM,< 1 µM
"C=CC(=O)Nc1ccc(Sc2nc(Nc3ccc(NS(C)(=O)=O)cc3)ncc2C)cc1 [Compound 285, N-(4-(5-methyl-2-(4-(methylsulfonamido)phenylao)pyrimidin-4-ylthio)phenyl)acrylamide]",< 1 µM,< 5 µM,< 1 µM
"CC#CC(=O)Nc1cccc(Nc2nccc(SC)n2)c1 [Compound 8, N-(3-(4-(methylthio)pyrimidin-2-ylao)phenyl)but-2-ynamide]",< 20 µM,< 20 µM,< 5 µM
"Cc1cnc(Nc2ccc(N3CCOCC3)cc2)nc1Sc1ccc(NC(=O)/C=C\C(=O)O)cc1 [Compound 380, (Z)-4-(4-(5-methyl-2-(4-morpholinophenylao)pyrimidin-4-ylthio)phenylao)-4-oxobut-2-enoic acid]",> 20 µM,> 20 µM,> 20 µM
"OCc1ccc(Sc2ccnc(Nc3ccc(N4CCOCC4)cc3)n2)cc1 [Compound 67, (4-(2-(4-morpholinophenylao)pyrimidin-4-ylthio)phenyl)methanol]",< 20 µM,< 20 µM,< 20 µM
"C=CC(=O)Nc1ccc(Sc2nc(Nc3ccc(N4CCC(CO)CC4)cc3)ncc2Br)cc1 [Compound 253, N-(4-(5-bromo-2-(4-(4-(hydroxymethyl)piperidin-1-yl)phenylao)pyrimidin-4-ylthio)phenyl)acrylamide]",< 1 µM,> 20 µM,< 1 µM
"Cc1cnc(Nc2ccc(N3CCOCC3)cc2)nc1Sc1ccc(N)nc1 [Compound 262, 4-(6-aopyridin-3-ylthio)-5-methyl-N-(4-morpholinophenyl)pyrimidin-2-ae]",> 20 µM,> 20 µM,> 20 µM
"Cc1cnc(Nc2cccc(O)c2)nc1Sc1ccc(NC(=O)CCl)cc1 [Compound 194, 2-chloro-N-(4-(2-(3-hydroxyphenylao)-5-methylpyrimidin-4-ylthio)phenyl)acetamide]",< 1 µM,< 5 µM,< 1 µM
